Our source for the inhibition and IC50 values is patent publication US8735406B2, “8-oxodihydropurine derivative” (Dainippon Sumitomo Pharma Co., Ltd., priority 2009, dated 2014).

pIC50: −log10 of the molar value. Counter-ions that a name gives are not always drawn. Like-named read-outs stand apart in the source and are kept apart here. Some results are limits rather than exact numbers.

This assay addresses T1, FAAH (Rattus norvegicus, UniProt P97612).
T1 construct: Preparation of Rat Brain Membranes Preparations (FAAH Enzyme Solution); from tissue; host or cells: rat cerebrum (brain membrane preparation)
T1 sequence (P97612 1-579): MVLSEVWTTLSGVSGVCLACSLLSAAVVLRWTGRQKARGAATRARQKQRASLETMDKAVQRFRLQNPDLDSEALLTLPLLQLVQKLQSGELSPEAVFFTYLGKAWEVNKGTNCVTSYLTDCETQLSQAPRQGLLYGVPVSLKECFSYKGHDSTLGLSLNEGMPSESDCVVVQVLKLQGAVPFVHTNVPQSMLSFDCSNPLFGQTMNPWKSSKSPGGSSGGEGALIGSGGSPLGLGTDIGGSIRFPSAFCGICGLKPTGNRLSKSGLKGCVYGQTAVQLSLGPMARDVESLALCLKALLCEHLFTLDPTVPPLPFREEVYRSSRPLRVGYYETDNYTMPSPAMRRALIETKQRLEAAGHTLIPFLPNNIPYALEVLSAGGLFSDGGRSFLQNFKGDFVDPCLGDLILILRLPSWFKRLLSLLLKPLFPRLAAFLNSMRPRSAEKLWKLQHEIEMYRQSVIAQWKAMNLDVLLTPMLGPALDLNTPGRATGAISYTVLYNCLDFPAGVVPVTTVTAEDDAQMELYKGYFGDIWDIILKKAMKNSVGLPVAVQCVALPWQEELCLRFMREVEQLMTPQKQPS
Nature of the assay: Determination of FAAH inhibitory activity in rat (rat brain membrane preparations, [3H]-anandamide hydrolysis). Format: biochemical. Particulars: rat brain membrane preparations; for pIC50: read-out: FAAH Inhibition IC50. In a few lines: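 Compounds tested from 0.1 nM to 1 μM to derive IC50 against FAAH hydrolysis in rat brain membrane preparations (100 μg/mL). A 10-min 37 °C preincubation was followed by 10 min with [3H]-anandamide (2 nM) mixed with 2 μM unlabelled anandamide. Radioactive ethanolamine was extracted into the water/methanol layer and counted.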

The mark [1] stands for this setting: at 100 nM, read-out: FAAH Inhibition Inhibition Rate at 100 nM.
Where [2] appears, read: 100 nM test substance, read-out: FAAH Inhibition, Inhibition Rate at 100 nM.

Regarding `CCc1ncc2c(n1)n(C(=O)N1CC(c3ccccc3)C1)c(=O)n2C` [Example 634], the negative logarithm of the IC50 (pIC50) – broadly, −log10 of the IC50, conventionally taken in molar units – was 7.01. In addition, the inhibition (in general, the change of the read-out against control, counted positive when it falls) at 0.1 µM under setting [1] is 95%.

On to `CCc1ncc2c(n1)n(C(=O)N1CC(c3cccc(F)c3)C1)c(=O)n2C` [Example 635], for which the negative-log IC50 (pIC50) is 7.36. Moreover, the inhibition at 0.1 µM under setting [1] stood at 88%.

`CCCc1ncc2c(n1)n(C(=O)N1CC(c3ccc(F)cc3)C1)c(=O)n2C` [Example 636]: the pIC50 is 7.11. Also, the inhibition at 0.1 µM under setting [1] worked out at 94%.

`CCCc1ncc2c(n1)n(C(=O)N1CC(c3ccccc3)C1)c(=O)n2C` [Example 637]: the pIC50 is 8.15. Also, the inhibition at 0.1 µM under setting [1] is 102%.

As for `CN(C)C(=O)n1c(=O)n(C)c2cnc(CCOc3ccc(C(F)(F)F)cc3)nc21` [Example 638, N,N,7-trimethyl-8-oxo-2-{2-[4-(trifluoromethyl)phenoxy]ethyl}-7,8-dihydro-9H-purine-9-carboxamide hydrochloric acid salt], the pIC50 was 7.92. In addition, the inhibition at 0.1 µM under setting [1] is 95%.

For the compound `CN(C)C(=O)n1c(=O)n(C)c2cnc(CCOc3cccc(Cl)c3)nc21` [Example 641, 2-[2-(3-Chlorophenoxy)ethyl]-N,N,7-trimethyl-8-oxo-7,8-dihydro-9H-purine-9-carboxamide], the pIC50 is 8.10. Also, under setting [1], the inhibition at 0.1 µM worked out at 105%.

Take `CCn1c(=O)n(C(=O)N(C)C)c2nc(CCc3ccccc3F)ncc21` [Example 643]: the pIC50 was 7.80. Under setting [1], the inhibition at 0.1 µM was found to be 97%.

For `CCn1c(=O)n(C(=O)N(C)C)c2nc(CCc3cccc(F)c3)ncc21` [Example 644, 7-Ethyl-2-[2-(3-fluorophenyl)ethyl]-N,N-dimethyl-8-oxo-7,8-dihydro-9H-purine-9-carboxamide], the pIC50 is 8.00. The inhibition at 0.1 µM under setting [1] is 95%.

Take `CCn1c(=O)n(C(=O)N(C)C)c2nc(CCc3ccc(F)cc3)ncc21` [Example 645, 7-Ethyl-2-[2-(4-fluorophenyl)ethyl]-N,N-dimethyl-8-oxo-7,8-dihydro-9H-purine-9-carboxamide]: the pIC50 was 7.70. In addition, the inhibition at 0.1 µM under setting [1] stood at 98%.

`CCCn1c(=O)n(C(=O)N(C)C)c2nc(CCc3ccccc3F)ncc21` [Example 646, 2-[2-(2-Fluorophenyl)ethyl]-N,N-dimethyl-8-oxo-7-propyl-7,8-dihydro-9H-purine-9-carboxamide]: the pIC50 is 7.89. Also, under setting [1], the inhibition at 0.1 µM was determined as 117%.

Consider `CCCn1c(=O)n(C(=O)N(C)C)c2nc(CCc3cccc(F)c3)ncc21` [Example 647, 2-[2-(3-Fluorophenyl)ethyl]-N,N-dimethyl-8-oxo-7-propyl-7,8-dihydro-9H-purine-9-carboxamide], for which the pIC50 was 8.00. Also, the inhibition at 0.1 µM under setting [1] was 100%.

As to `CCCn1c(=O)n(C(=O)N(C)C)c2nc(CCc3ccc(F)cc3)ncc21` [Example 648, 2-[2-(4-Fluorophenyl)ethyl]-N,N-dimethyl-8-oxo-7-propyl-7,8-dihydro-9H-purine-9-carboxamide], the pIC50 was 7.57. Moreover, the inhibition at 0.1 µM under setting [1] worked out at 87%.

In the case of `CCn1c(=O)n(C(=O)N2CCC2)c2nc(CCc3ccccc3F)ncc21` [Example 649, 9-(Azetidin-1-ylcarbonyl)-7-ethyl-2-[2-(2-fluorophenyl)ethyl]-7,9-dihydro-8H-purine-8-one], the pIC50 was 7.77. Besides, under setting [1], the inhibition at 0.1 µM is 90%.

As to `CCn1c(=O)n(C(=O)N2CCC2)c2nc(CCc3cccc(F)c3)ncc21` [Example 650, 9-(Azetidin-1-ylcarbonyl)-7-ethyl-2-[2-(3-fluorophenyl)ethyl]-7,9-dihydro-8H-purine-8-one], the pIC50 is 8.00. In addition, the inhibition at 0.1 µM under setting [1] stood at 96%.

Regarding `CCn1c(=O)n(C(=O)N2CCC2)c2nc(CCc3ccc(F)cc3)ncc21` [Example 651, 9-(Azetidin-1-ylcarbonyl)-7-ethyl-2-[2-(4-fluorophenyl)ethyl]-7,9-dihydro-8H-purine-8-one], the pIC50 was 8.05. In addition, the inhibition at 0.1 µM under setting [1] amounted to 100%.

Turning to `CN(C)C(=O)n1c(=O)n(C)c2cnc(Cc3cccc(C(F)(F)F)c3)nc21` [Example 654, N,N,7-Trimethyl-8-oxo-2-[3-(trifluoromethyl)benzyl]-7,8-dihydro-9H-purine-9-carboxamide], the pIC50 was 7.96. Besides, the inhibition at 0.1 µM under setting [1] stood at 110%.

On to `CCn1c(=O)n(C(=O)N2CC(c3ccccc3)C2)c2cnc(COC)nc21` [Example 655, 9-Ethyl-2-(methoxymethyl)-7-[(3-phenylazetidin-1-yl)carbonyl]-7,9-dihydro-8H-purine-8-one], for which the pIC50 was 8.00. Under setting [1], the inhibition at 0.1 µM came to 102%.

With `CCn1c(=O)n(C(=O)N2CC(c3ccc(F)cc3)C2)c2cnc(COC)nc21` [Example 656, 9-Ethyl-7-{[3-(4-fluorophenyl)azetidin-1-yl]carbonyl}-2-(methoxymethyl)-7,9-dihydro-8H-purine-8-one], the pIC50 was 8.00. Further, the inhibition at 0.1 µM under setting [1] is 115%.

With `CCn1c(=O)n(C(=O)N2CC(c3cccc(F)c3)C2)c2cnc(COC)nc21` [Example 657, 9-Ethyl-7-{[3-(3-fluorophenyl)azetidin-1-yl]carbonyl}-2-(methoxymethyl)-7,9-dihydro-8H-purine-8-one], the pIC50 is 8.05. Moreover, the inhibition at 0.1 µM under setting [1] came out at 119%.

With `CCCn1c(=O)n(C(=O)N2CC(c3ccccc3)C2)c2cnc(COC)nc21` [Example 658, 2-(Methoxymethyl)-7-[(3-phenylazetidin-1-yl)carbonyl]-9-propyl-7,9-dihydro-8H-purine-8-one], the pIC50 is 7.82. In addition, under setting [1], the inhibition at 0.1 µM is 86%.

Regarding `CCCn1c(=O)n(C(=O)N2CC(c3ccc(F)cc3)C2)c2cnc(COC)nc21` [Example 659, 7-{[3-(4-Fluorophenyl)azetidin-1-yl]carbonyl}-2-(methoxymethyl)-9-propyl-7,9-dihydro-8H-purine-8-one], the pIC50 was 8.22. Besides, the inhibition at 0.1 µM under setting [1] amounted to 112%.

With `CCCn1c(=O)n(C(=O)N2CC(c3cccc(F)c3)C2)c2cnc(COC)nc21` [Example 660, 7-{[3-(3-Fluorophenyl)azetidin-1-yl]carbonyl}-2-(methoxymethyl)-9-propyl-7,9-dihydro-8H-purine-8-one], the negative-log IC50 (pIC50) is 8.00. The inhibition at 0.1 µM under setting [1] worked out at 121%.

As for `CCCn1c(=O)n(C(=O)N2CC(c3ccccc3F)C2)c2cnc(COC)nc21` [Example 661, 7-{[3-(2-Fluorophenyl)azetidin-1-yl]carbonyl}-2-(methoxymethyl)-9-propyl-7,9-dihydro-8H-purine-8-one], the pIC50 is 7.44. In addition, under setting [1], the inhibition at 0.1 µM was 82%.

For the compound `CCCn1c(=O)n(C(=O)N2CC(c3cccc(C(F)(F)F)c3)C2)c2cnc(COC)nc21` [Example 662, 2-(Methoxymethyl)-9-propyl-7-({3-[3-(trifluoromethyl)phenyl]azetidin-1-yl}carbonyl)-7,9-dihydro-8H-purine-8-one], the negative-log IC50 (pIC50) is 8.10. Also, the inhibition at 0.1 µM under setting [1] was found to be 97%.

As to `Cn1c(=O)n(C(=O)N2CCCC2)c2cnc(/C=C/c3ccc(C(F)(F)F)cc3)nc21` [compound 3], the inhibition at 0.1 µM under setting [2] came to 59%. In addition, the pIC50 (test substance 0.1 nM to 1 μM) is 7.07.

`Cn1c(=O)n(C(=O)N2CCCC2)c2cnc(/C=C/c3cccc(C(F)(F)F)c3)nc21` [compound 10]: under setting [2], the inhibition at 0.1 µM was 23%. For the same compound, the pIC50 (test substance 0.1 nM to 1 μM) was under 7.00.

For the compound `Cn1c(=O)n(C(=O)N2CCCC2)c2cnc(CCc3cccc(F)c3)nc21` [compound 13], the inhibition at 0.1 µM under setting [2] worked out at 91%. Further, the pIC50 (test substance 0.1 nM to 1 μM) was 7.38.

As to `COc1cccc(CCc2ncc3c(n2)n(C)c(=O)n3C(=O)N2CCCC2)c1` [compound 15], the inhibition at 0.1 µM under setting [2] stood at 75%. Under “test substance 0.1 nM to 1 μM”, the negative logarithm of the IC50 (pIC50) was 7.20.

As for `Cc1ccccc1-c1ncc2c(n1)n(C)c(=O)n2C(=O)N1CCCC1` [compound 169], the inhibition at 0.1 µM under setting [2] is 78%. Moreover, the pIC50 (test substance 0.1 nM to 1 μM) was 7.39.

Regarding `COc1ccccc1-c1ncc2c(n1)n(C)c(=O)n2C(=O)N1CCCC1` [compound 172], the inhibition at 0.1 µM under setting [2] came out at 67%. For the setting “test substance 0.1 nM to 1 μM”, the pIC50 was 7.16.

`COc1ccc(-c2ncc3c(n2)n(C)c(=O)n3C(=O)N2CCCC2)cc1` [compound 174]: under setting [2], the inhibition at 0.1 µM came to 102%. The pIC50 (test substance 0.1 nM to 1 μM) is 8.22.

In the case of `CCOc1cccc(-c2ncc3c(n2)n(C)c(=O)n3C(=O)N2CCCC2)c1` [compound 175], the inhibition at 0.1 µM under setting [2] came out at 101%. For the same compound, the negative-log IC50 (pIC50) (test substance 0.1 nM to 1 μM) is 8.15.

`CCOc1ccc(-c2ncc3c(n2)n(C)c(=O)n3C(=O)N2CCCC2)cc1` [compound 176]: under setting [2], the inhibition at 0.1 µM was 100%. Also, the pIC50 (test substance 0.1 nM to 1 μM) is 8.00.

As for `Cn1c(=O)n(C(=O)N2CCCC2)c2cnc(-c3ccc(OC(F)(F)F)cc3)nc21` [compound 177], the inhibition at 0.1 µM under setting [2] is 78%. In addition, the negative-log IC50 (pIC50) (test substance 0.1 nM to 1 μM) is 7.24.
